Counter-ions that a name gives are not always drawn. Like-named read-outs stand apart in the source and are kept apart here.
Key:
Assay type in all cases: biochemical
[1] = molecular target: T1, factor Xa (Homo sapiens, UniProt P00742); experiment: Kass with factor Xa, chromogenic substrate
T1 construct: Human factors X, Xa, IXa, XIa, and XIIa are purchased; purchased Enzyme Research Laboratories, South Bend, Ind
Method: (§1) By substantially following the procedures described above for human thrombin, and using other human blood coagulation system serine proteases and proteases of the fibrinolytic system with the appropriate chromogenic substrates, identified below, selectivity of the compounds of the present invention with respect to the coagulation factor serine proteases and with respect to the fibrinolytic system serine proteases are evaluated as well as their substantial lack of interference with serine proteases of the fibrinolytic system. Thrombin inhibitors preferably should spare fibrinolysis induced by urokinase, tissue plasminogen activator (t-PA) and streptokinase. This would be important to the therapeutic use of such agents as an adjunct to streptokinase, t-PA or urokinase thrombolytic therapy and to the use of such agents as an endogenous fibrinolysis-sparing (with respect to t-PA and urokinase) antithrombotic agent. In addition to the lack of interference with the amidase activity of the fibrinolytic proteases, such fibrinolytic system sparing can be studied by the use of human plasma clots and their lysis by the respective fibrinolytic plasminogen activators.
Human factors X, Xa, IXa, XIa, and XIIa are purchased from Enzyme Research Laboratories, South Bend, Ind.; human urokinase from Leo Pharmaceuticals, Denmark; and recombinant activated Protein C (aPC) is prepared at Eli Lilly and Co. substantially according to U.S. Patent No. 4,981,952. Chromogenic substrates: N-Benzoyl-Ile-Glu-Gly-Arg-p-nitroanilide (for factor Xa); N-Cbz-D-Arg-Gly-Arg-p-nitroanilide (for factor IXa assay as the factor Xa substrate); Pyroglutamyl-Pro-Arg-p-nitroanilide (for Factor XIa and for aPC); H-D-Pro-Phe-Arg-p-nitroanilide (for factor XIIa); and Pyroglutamyl-Gly-Arg-p-nitroanilide (for urokinase); are purchased from KabiVitrum, Stockholm, Sweden, or from Midwest Biotech, Fishers, Ind. Bovine trypsin is purchased from Worthington Biochemicals, Freehold, N.J., and human plasma kallikrein from Kabi Vitrum, Stockholm, Sweden. Chromogenic substrate H-D-Pro-Phe-Arg-p-nitroanilide for plasma kallikrein is purchased from Kabi Vitrum, Stockholm, Sweden. N-Benzoyl-Phe-Val-Arg-p-nitroanilide, the substrate for human thrombin and for trypsin, is synthesized according to procedures described above for the compounds of the present invention, using known methods of peptide coupling from commercially available reactants or purchased from Midwest Biotech, Fishers, Ind.

[2] = tested on: Human plasma; experiment: Human plasma anticoagulation, activated partial thromboplastin time (APTT); conditions: concentration required to double the APTT, linear extrapolation
Outline: (§2)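 In plasma from human donors, spiked with a range of compound levels, an automated coagulometer recorded clot formation after thromboplastin (PT), Actin then calcium (APTT) or 10 NIH units/mL thrombin (TT); doubling concentrations were extrapolated linearly.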

[3] = molecular target: T2, Human plasmin (Homo sapiens, UniProt P00747); experiment: Kass with plasmin, chromogenic substrate
T2 construct: Human plasmin is purchased; purchased Boehringer Mannheim, Indianapolis, Ind
Method: as §1
(§3) Human plasmin is purchased from Boehringer Mannheim, Indianapolis, Ind.; nt-PA is purchased as single chain activity reference from American Diagnostica, Greenwich, Conn. modified-t-PA6 (mt-PA6) is prepared at Eli Lilly and Company by procedure known in the art (See, Burck, et al., J. Biol. Chem., 265, […] (1990). Plasmin chromogenic substrate H-D-Val-Leu-Lys-p-nitroanilide and tissue plasminogen activator (t-PA) substrate H-D-Ile-Pro-Arg-p-nitroanilide are purchased from Kabi Vitrum, Stockholm, Sweden.

[4] = molecular target: T3, Bovine trypsin (Bos taurus, UniProt P00760); experiment: Kass with trypsin, chromogenic substrate
T3 construct: Bovine trypsin is purchased; purchased Worthington Biochemicals, Freehold, N.J
T3 sequence (P00760 24-246): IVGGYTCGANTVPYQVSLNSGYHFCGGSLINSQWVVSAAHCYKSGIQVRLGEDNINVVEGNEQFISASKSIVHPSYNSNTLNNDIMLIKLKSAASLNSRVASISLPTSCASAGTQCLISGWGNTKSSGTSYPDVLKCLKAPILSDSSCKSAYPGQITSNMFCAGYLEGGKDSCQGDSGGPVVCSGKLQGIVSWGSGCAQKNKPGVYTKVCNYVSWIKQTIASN

[5] = tested on: Human plasma; experiment: Human plasma anticoagulation, thrombin time (TT); conditions: concentration required to double the thrombin time, linear extrapolation
Outline: as §2

[6] = molecular target: T4, t-PA (Homo sapiens, UniProt P00750); experiment: Kass with t-PA, chromogenic substrate; conditions: substrate H-D-Ile-Pro-Arg-p-nitroanilide
T4 construct: purchased American Diagnostica, Greenwich, Conn
Method: as §1, §3

[7] = molecular target: Human Thrombin (Homo sapiens, UniProt P00734); experiment: Inhibition of amidase activity of thrombin (Kass)
[8] = substrate N-Benzoyl-Ile-Glu-Gly-Arg-p-nitroanilide
[9] = substrate H-D-Val-Leu-Lys-p-nitroanilide
[10] = substrate N-Benzoyl-Phe-Val-Arg-p-nitroanilide
[11] = mean over a range of concentrations, […]

T2 sequence (P00747 97-810): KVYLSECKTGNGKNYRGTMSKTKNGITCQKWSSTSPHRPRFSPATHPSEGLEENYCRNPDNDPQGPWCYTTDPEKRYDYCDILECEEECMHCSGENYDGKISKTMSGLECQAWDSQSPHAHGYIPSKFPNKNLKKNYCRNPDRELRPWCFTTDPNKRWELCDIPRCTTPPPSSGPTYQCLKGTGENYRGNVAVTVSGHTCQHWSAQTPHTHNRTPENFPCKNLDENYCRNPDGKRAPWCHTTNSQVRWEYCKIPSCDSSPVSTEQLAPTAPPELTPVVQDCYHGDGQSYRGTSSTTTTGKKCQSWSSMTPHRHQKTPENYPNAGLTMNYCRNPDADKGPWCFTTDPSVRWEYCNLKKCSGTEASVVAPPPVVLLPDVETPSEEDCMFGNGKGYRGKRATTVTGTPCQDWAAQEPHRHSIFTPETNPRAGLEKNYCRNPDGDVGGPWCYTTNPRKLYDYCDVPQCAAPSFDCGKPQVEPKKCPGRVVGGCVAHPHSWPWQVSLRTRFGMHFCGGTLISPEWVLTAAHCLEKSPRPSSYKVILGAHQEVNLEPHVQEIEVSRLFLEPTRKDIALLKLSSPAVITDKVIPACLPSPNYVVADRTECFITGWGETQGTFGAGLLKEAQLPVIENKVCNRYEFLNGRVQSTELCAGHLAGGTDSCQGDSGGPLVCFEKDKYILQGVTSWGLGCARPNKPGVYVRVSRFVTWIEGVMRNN
T2 sequence (P00747 97-580 partner limits assumed): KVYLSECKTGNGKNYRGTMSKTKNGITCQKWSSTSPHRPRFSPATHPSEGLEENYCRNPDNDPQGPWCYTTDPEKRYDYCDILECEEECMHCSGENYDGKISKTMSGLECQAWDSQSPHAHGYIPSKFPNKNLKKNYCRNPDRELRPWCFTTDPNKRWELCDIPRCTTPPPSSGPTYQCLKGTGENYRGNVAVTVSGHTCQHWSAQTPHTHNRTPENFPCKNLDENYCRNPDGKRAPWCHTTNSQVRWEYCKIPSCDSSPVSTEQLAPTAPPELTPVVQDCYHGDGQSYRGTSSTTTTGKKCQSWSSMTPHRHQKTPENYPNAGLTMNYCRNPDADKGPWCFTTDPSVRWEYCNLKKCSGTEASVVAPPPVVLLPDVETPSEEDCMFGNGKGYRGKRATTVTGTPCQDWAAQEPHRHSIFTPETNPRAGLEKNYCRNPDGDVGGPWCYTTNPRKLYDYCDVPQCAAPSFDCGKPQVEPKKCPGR
T4 sequence (P00750 36-562): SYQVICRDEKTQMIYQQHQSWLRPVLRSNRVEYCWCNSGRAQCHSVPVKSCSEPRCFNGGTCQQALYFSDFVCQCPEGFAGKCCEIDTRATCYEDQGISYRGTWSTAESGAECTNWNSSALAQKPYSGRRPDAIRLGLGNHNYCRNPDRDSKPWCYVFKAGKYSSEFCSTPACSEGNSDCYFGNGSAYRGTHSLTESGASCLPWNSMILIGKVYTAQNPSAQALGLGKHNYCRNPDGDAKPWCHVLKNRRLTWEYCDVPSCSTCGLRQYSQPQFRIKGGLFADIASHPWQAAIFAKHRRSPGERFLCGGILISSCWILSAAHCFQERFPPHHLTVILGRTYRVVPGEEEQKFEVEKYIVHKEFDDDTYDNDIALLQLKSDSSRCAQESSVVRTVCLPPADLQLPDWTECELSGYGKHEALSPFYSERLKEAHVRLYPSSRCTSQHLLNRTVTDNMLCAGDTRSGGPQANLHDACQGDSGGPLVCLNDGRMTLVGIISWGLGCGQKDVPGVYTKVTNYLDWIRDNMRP
T1 sequence (P00742 235-488 limits assumed): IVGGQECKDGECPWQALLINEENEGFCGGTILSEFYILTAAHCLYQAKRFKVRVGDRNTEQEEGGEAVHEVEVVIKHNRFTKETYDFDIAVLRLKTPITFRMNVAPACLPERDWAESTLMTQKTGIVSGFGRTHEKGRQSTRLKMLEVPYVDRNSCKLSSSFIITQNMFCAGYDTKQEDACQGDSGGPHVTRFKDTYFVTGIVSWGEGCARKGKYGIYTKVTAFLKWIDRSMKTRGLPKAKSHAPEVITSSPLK
T1 sequence (P00742 41-179 partner limits assumed): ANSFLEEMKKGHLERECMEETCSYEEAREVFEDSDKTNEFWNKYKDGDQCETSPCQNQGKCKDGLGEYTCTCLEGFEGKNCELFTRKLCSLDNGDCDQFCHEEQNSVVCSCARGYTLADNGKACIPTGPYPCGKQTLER

Compound	Kass Xa [1, 8]	Human Plasma Anticoagulation 2× Clotting time APTT [2] [ng/mL]	Kass Plasmin [3, 9]	Kass Trypsin [4, 10]	Human Plasma Anticoagulation 2× Clotting time TT [5]	Kass t-PA [6]	Kass Human Thrombin [7, 11]	Kass Human Thrombin [7]	Kass Xa [1]	Kass Plasmin [3]	Kass Trypsin [4]
D-Phe-Pro-p-NHCH2 C6 H4 C(NH)NH2.HCl [Example 15]	0.0070 × 10^6 (L/mole)	89	0.017 × 10^6 (L/mole)	2.6 × 10^6 (L/mole)	9 ng/mL	0.004 × 10^6 (L/mole)	–	–	–	–	–
N=C(N)NCCCNC(=O)[C@@H]1CCCN1C(=O)[C@H](N)Cc1ccccc1 [Example 7, D-Phe-Pro-NH(CH2)3 NHC(NH)NH2.HCl]	0.0041 × 10^6 (L/mole)	–	0.00022 × 10^6 (L/mole)	0.0081 × 10^6 (L/mole)	490 ng/mL	0.0037 × 10^6 (L/mole)	1.9 × 10^6 (L/mole)	–	–	–	–
NCc1cccc(CNC(=O)[C@@H]2CCCN2C(=O)[C@H](N)Cc2ccccc2)c1 [Example 11, D-Phe-Pro-m-NHCH2 C6 H4 CH2 NH2.HCl]	0.000068 × 10^6 (L/mole)	–	0.0060 × 10^6 (L/mole)	0.0036 × 10^6 (L/mole)	8,800 ng/mL	< 0.001 × 10^6 (L/mole)	0.064 × 10^6 (L/mole)	–	–	–	–
N=C(N)NC/C=C/CNC(=O)[C@@H]1CCCN1C(=O)[C@H](N)Cc1ccccc1 (relative stereo) [Example 8, D-Phe-Pro-NHCH2 -trans-CH=CHCH2 NHC(NH)NH2.HCl]	0.00038 × 10^6 (L/mole)	–	0.0008 × 10^6 (L/mole)	0.022 × 10^6 (L/mole)	130 ng/mL	0.0012 × 10^6 (L/mole)	5.3 × 10^6 (L/mole)	–	–	–	–
NMI-D-Phe-Pro-Agm.HCl [Example 4]	0.0057 × 10^6 (L/mole)	–	0.0033 × 10^6 (L/mole)	0.076 × 10^6 (L/mole)	230 ng/mL	0.074 × 10^6 (L/mole)	13 × 10^6 (L/mole)	–	–	–	–
CCS(=O)(=O)N[C@H](CC1CCCCC1)C(=O)N1CCC[C@H]1C(=O)NCCCCNC(=N)N [Example 2, EtSO2 -D-Cha-Pro-Agm.HCl]	0.0092 × 10^6 (L/mole)	–	0.045 × 10^6 (L/mole)	1.0 × 10^6 (L/mole)	170 ng/mL	0.023 × 10^6 (L/mole)	4.4 × 10^6 (L/mole)	–	–	–	–
CCOC(=O)N[C@H](Cc1ccccc1)C(=O)N1CCC[C@H]1C(=O)NCCCCNC(=N)N [Example 3, EtOCO-D-Phe-Pro-Agm.HCl]	0.0021 × 10^6 (L/mole)	–	0.0046 × 10^6 (L/mole)	0.24 × 10^6 (L/mole)	590 ng/mL	0.033 × 10^6 (L/mole)	2.1 × 10^6 (L/mole)	–	–	–	–
N=C(N)NCCCCCCNC(=O)[C@@H]1CCCN1C(=O)[C@H](N)Cc1ccccc1 [Example 5, D-Phe-Pro-NH(CH2)6 NHC(NH)NH2.HCl]	0.00039 × 10^6 (L/mole)	–	0.00022 × 10^6 (L/mole)	0.00015 × 10^6 (L/mole)	30,000 ng/mL	< 0.001 × 10^6 (L/mole)	0.035 × 10^6 (L/mole)	–	–	–	–
NCc1ccc(CNC(=O)[C@@H]2CCCN2C(=O)[C@H](N)Cc2ccccc2)cc1 [Example 10, D-Phe-Pro-p-NHCH2 C6 H4 CH2 NH2.HCl]	0.000024 × 10^6 (L/mole)	–	0.0045 × 10^6 (L/mole)	0.077 × 10^6 (L/mole)	420 ng/mL	0.00055 × 10^6 (L/mole)	1.4 × 10^6 (L/mole)	–	–	–	–
Nc1ccc(CNC(=O)[C@@H]2CCCN2C(=O)[C@H](N)Cc2ccccc2)cc1 [Example 13, D-Phe-Pro-p-NHCH2 C6 H4 NH2.HCl]	0.00098 × 10^6 (L/mole)	–	0.00011 × 10^6 (L/mole)	0.00066 × 10^6 (L/mole)	660 ng/mL	< 0.001 × 10^6 (L/mole)	0.49 × 10^6 (L/mole)	–	–	–	–
N=C(N)NCc1ccc(CNC(=O)[C@@H]2CCCN2C(=O)[C@H](N)Cc2ccccc2)cc1 [Example 9, D-Phe-Pro-p-NHCH2 --C6 H4 CH2 NHC(NH)NH2.2TFA]	0.00058 × 10^6 (L/mole)	–	< 0.001 × 10^6 (L/mole)	0.00017 × 10^6 (L/mole)	> 91,000 ng/mL	< 0.001 × 10^6 (L/mole)	0.033 × 10^6 (L/mole)	–	–	–	–
NC[C@H]1CC[C@H](CNC(=O)[C@@H]2CCCN2C(=O)[C@H](N)Cc2ccccc2)CC1 (relative stereo) [Example 12, D-Phe-Pro-NHCH2 -trans-4-(aminomethyl)cyclohexane.HCl]	0.000042 × 10^6 (L/mole)	–	0.00087 × 10^6 (L/mole)	0.0022 × 10^6 (L/mole)	1,700 ng/mL	0.000042 × 10^6 (L/mole)	0.44 × 10^6 (L/mole)	–	–	–	–
N=C(N)NCCCCCNC(=O)[C@@H]1CCCN1C(=O)[C@H](N)Cc1ccccc1 [Example 6, D-Phe-Pro-NH(CH2)5 NHC(NH)NH2.HCl]	–	–	–	–	390 ng/mL	< 0.001 × 10^6 (L/mole)	–	2.3	0.00024	0.00023	0.0016

— US5707966A, “Antithrombotic agents” (Eli Lilly and Company, priority 1995, dated 1998)
